Assay results from US12410323B2, “Potent antifouling agents albofungins target multiple fouling organisms” (The Hong Kong University of Science and Technology, priority 2021, dated 2025).
Converted amounts (≈) assume the structure as drawn. Like-named read-outs stand apart in the source and are kept apart here.

How the values were obtained:
[1] = test system: MCCC 1A01390 Pseudomonas pachastrellae; assay: Biofilm inhibition assay (MTT), marine bacteria; format: cell-based; conditions: lowest concentration inhibiting 90% of biofilm formation; 24 h
Method: (§1) The ability of the bacteria to form static biofilms was tested. Marine bacteria were cultured overnight in marine broth at 22° C. with 220 rpm agitation (Pseudomonas pachastrellae MCCC 1A01390, Sulfitobacter pontiacus MCCC 1A04899 and Psychrobacter nivimaris MCCC 1A 11723) and at 30° C. (Staphylococcus aureus B04, Staphylococcus sp. Z01 and Micrococcus sp. Z02) and then diluted to 10^7 CFU mL^−1 in marine broth supplemented with 1% of glucose; pathogenic bacteria was cultured overnight in LB broth with 1% glucose with 220 rpm at 37° C. Afterwards, 200 μL of the diluted solution were added to each well of a 96-well plate (Corning Inc., New York, USA) and was then incubated at 22° C. or 30° C. for 24 h. The culture medium, planktonic cells and loosely adhered bacteria were removed by dual washing with a phosphate-buffered saline (PBS) buffer, and the firmly attached bacteria were incubated with 20 μL of MTT (5 mg mL^−1) at 37° C. for 3 h. The supernatant was discarded, and formazan was dissolved in 150 μL of DMSO. Absorbance was measured using the Multiskan™ FC microplate photometer (Thermo Fisher Scientific, Waltham, USA) under 570 nm, and MRSA ATCC 43300 was used as a positive control. All the experiments were performed in triplicate.
(§2) The antibacterial activities of albofungins were tested following specific protocols (She et al., 2020). Marine broth was used as the test medium for the marine bacteria, and the MHB broth was used as the test medium for the pathogenic bacteria. The plate was kept at 22° C. or 30° C. overnight, and the minimum inhibitory concentration (MIC) is the lowest concentration that the drug prevents the visible growth of bacteria. The bacteria which have successfully formed biofilms were further used for antibiofilm formation assays. Different concentrations of albofungin compounds were added to each well. Biofilm formation was assessed through the MTT assay as previously described. […] Data were analyzed using one-way ANOVA to detect significant differences and standard deviation (SD) was calculated using GraphPad Prism 9. All the assays were performed in triplicate.

[2] = test system: MCCC 1A04899 Sulfitobacter pontiacus; assay: Biofilm inhibition assay (MTT), marine bacteria; format: cell-based; conditions: lowest concentration inhibiting 90% of biofilm formation; 24 h
Method: as §1, §2

[3] = test system: MCCC 1A11723 Psychrobacter nivimaris; assay: Biofilm inhibition assay (MTT), marine bacteria; format: cell-based; conditions: lowest concentration inhibiting 90% of biofilm formation; 24 h
Method: as §1, §2

Micrococcus sp. Z02 [4] = assay: Biofilm inhibition assay (MTT), marine bacteria; format: cell-based; conditions: lowest concentration inhibiting 90% of biofilm formation; 24 h
Method: as §1, §2

Staphylococcus aureus 04 [5] = assay: Biofilm inhibition assay (MTT), marine bacteria; format: cell-based; conditions: lowest concentration inhibiting 90% of biofilm formation; 24 h
Method: as §1, §2

Staphylococcus sp. Z01 [6] = assay: Biofilm inhibition assay (MTT), marine bacteria; format: cell-based; conditions: lowest concentration inhibiting 90% of biofilm formation; 24 h
Method: as §1, §2

[7] = test system: MCCC 1A01390 Pseudomonas pachastrellae; assay: Bacterial growth inhibition (antibacterial assay, MIC); format: cell-based; conditions: Halopseudomonas pachastrellae; marine broth, overnight
Method: as §2

[8] = test system: MCCC 1A04899 Sulfitobacter pontiacus; assay: as above; format: cell-based
Method: as §2

[9] = test system: MCCC 1A11723 Psychrobacter nivimaris; assay: as above; format: cell-based; conditions: marine broth, overnight
Method: as §2

Micrococcus sp. Z02 [10] = assay: as above; format: cell-based; conditions: marine broth, overnight
Method: as §2

Staphylococcus aureus 04 [11] = assay: as above; format: cell-based; conditions: marine broth, overnight
Method: as §2

Staphylococcus sp. Z01 [12] = assay: as above; format: cell-based; conditions: marine broth, overnight
Method: as §2

[13] = Anti-larval settlement bioassay, barnacle; format: in vivo, Amphibalanus amphitrite; conditions: Amphibalanus amphitrite (barnacle), cyprid larvae, in vivo; larval mortality, 48 h at 25° C.
Method: (§3) A. amphitrite adults were collected from Pak Sha Wan Pier, Hong Kong (22° 38′N, 114° 28′E) and after keeping in the dark for 24 h, a light source was used to stimulate the larval release. Within 1 h, the larvae were collected and cultured in 0.22 μm filtered seawater with a daily diet of Chaetoceros gracilis Schutt at 1×10^6 cells mL^−1 until their growth into cyprids, which were used for the anti-larval settlement bioassay. The bryozoan B. neritina adults were collected from a fish farm in Pak Shek Kok, Hong Kong (22° 43′N, 114° 20′E) and kept in flow-through seawater for no more than 7 days before use. The larvae were released within 30 minutes before the bioassay as described (Xu et al., 2010). The bioassay was conducted in a 24-well polystyrene tissue culture plate with 15-20 larvae in each well. 0.1% of DMSO in filtered seawater (FSW), and 0.625, 1.25, 2.5, 5, 10, 20, and 40 μg mL^−1 albofungin concentrations were tested in triplicate. In each well, 1 mL of FSW containing 15-20 larvae and 1 mL of albofungin solution of different concentrations. The plate was kept for 48 h at 25° C. (bryozoan B. neritina larvae were kept for 3 h). The wells with 0.1% of DMSO in FSW served as a negative control, and butenolide was used as a positive control. The number of attached, swimming, and dead larvae were counted under an Olympus optical microscope (Olympus Corporation, Tokyo, Japan). The settlement rate was calculated as the ratio of settled larvae to the total number of larvae in each well, and the death rate was calculated as the ratio of dead or missing larvae to the total number of larvae in each well. Half maximal effective concentration (EC50) and half lethal concentration (LC50) were determined for each compound, and the ratio of LC50/EC50 was used to evaluate the toxicity of the antifoulant. Experiments were performed in triplicate. Data were analyzed by one-way ANOVA to detect significant differences in the larval settlement, and SD was calculated by GraphPad Prism 9.

[14] = test system: barnacle Amphibalanus amphitrite larvae; assay: Anti-larval settlement bioassay, barnacle; format: in vivo; conditions: for EC50: Amphibalanus amphitrite; for settlement rate compared with control group (0.1% DMSO in FSW): after 48 h of incubation; for LC50/EC50: ratio used to evaluate toxicity of the antifoulant
Method: as §3

MRSA ATCC 43300 = assay: Biofilm inhibition assay (MTT), pathogenic bacteria; format: cell-based, Staphylococcus aureus; conditions: lowest concentration inhibiting 90% of biofilm formation
Method: as §1
as §2, with “All the assays were performed in triplicate.” left out

[15] = test system: Acinetobacter baumannii B-65371; assay: as above; format: cell-based; conditions: lowest concentration inhibiting 90% of biofilm formation
Method: as §1, §2

[16] = test system: Enterobacter cloacae NRRL-B-425; assay: as above; format: cell-based; conditions: lowest concentration inhibiting 90% of biofilm formation
Method: as §1, §2

Escherichia coli k12 = assay: as above; format: cell-based; conditions: lowest concentration inhibiting 90% of biofilm formation
Method: as §1, §2

[17] = Anti-larval settlement bioassay, bryozoan; format: in vivo, Bugula neritina; conditions: Bugula neritina (bryozoan), larvae, in vivo; larval mortality, 3 h
Method: as §3

[18] = test system: bryozoan Bugula neritina larvae; assay: Anti-larval settlement bioassay, bryozoan; format: in vivo
Method: as §3

[19] = Release rate of albofungin from coatings into artificial seawater (HPLC); format: physicochemical; conditions: for highest release rate: first day, artificial seawater
Method: Around 1 g of albofungin compound was isolated, purified and analyzed using HPLC to guarantee over 95% purity. Albofungin-based hydrolysable and degradable copolymer coating was prepared as follows: methyl methacrylate (MMA) and tributylsilyl methacrylate (TBSM) copolymer (PMSMO) was synthesized via radical ring-opening polymerization (Zhou et al., 2015). For 5 wt % of albofungin-based coating, 0.95 g of PMSMO and 0.05 g of albofungin were dissolved in xylene and tetrahydrofuran (v:v=1:2) and mixed vigorously at room temperature. The solution was then coated on the PVC panels (4×7 cm^2) and dried at room temperature for 7 days (Ma et al., 2017). Other coatings with different albofungin concentrations (10 and 15 wt %) were prepared using the same procedure. The coating with PMSMO only was used as a […]. Each concentration was prepared for three biological replicates. The field test was conducted from March to April 2021 in a fish farm at Yung Shue O, Hong Kong (22° 24′N, 114° 21′E), which was heavily fouled all year round. The PVC panel was submerged into seawater at a depth of 0.5 meters for 2 months, retrieved, washed with seawater, and photographed. The area covered by biofoulers was calculated by Image J (Fiji-2.2.0) (Schindelin, et al., 2012). One-way ANOVA was used to compare the albofungin-coated panels and the control panels. The release rate of albofungin under static conditions was determined by measuring the compound concentration with HPLC. Albofungin-based coatings were applied onto a PVC panel (20×75 mm^2) and submerged in artificial seawater (ASW). After 7 days, the panel was transferred to an individual container with 100 mL of ASW. After 24 h of immersion, 10 mL of the seawater was taken out of the container and extracted with the same volume of ethyl acetate three times. After drying under the SpeedVac vacuum concentrators, the extracts were dissolved in 100 μL of methanol and then subjected to HPLC using a reversed-phase system (Waters 2695) with a Phenomenex Luna C18 column connected to a UV detector at 300 nm. The unique UV absorption of albofungin and retention time were determined, with the amount being calculated from the established standard curves using peak areas plotted against known standard quantities.

[20] = larval settlement, 48 h at 25° C., read-out: EC50

SMILES | MBIC90 [1] [µg/mL] | MBIC90 [2] [µg/mL] | MBIC90 [3] [µg/mL] | MBIC90 (Micrococcus sp. Z02 [4]) [ng/mL] | MBIC90 (Staphylococcus aureus 04 [5]) [ng/mL] | MBIC90 (Staphylococcus sp. Z01 [6]) [ng/mL] | MIC [7] [µg/mL] | MIC [8] [µg/mL] | MIC [9] [µg/mL] | MIC (Micrococcus sp. Z02 [10]) [µg/mL] | MIC (Staphylococcus aureus 04 [11]) [µg/mL] | MIC (Staphylococcus sp. Z01 [12]) [µg/mL] | LC50 at 48 h [13] [µg/mL] | EC50 [14, 20] [µg/mL] | settlement rate compared with control group (0.1% DMSO in FSW) [14] | MBIC90 (MRSA ATCC 43300) [µg/mL] | MBIC90 [15] [µg/mL] | MBIC90 [16] [µg/mL] | MBIC90 (Escherichia coli k12) [µg/mL] | EC50 ([14]; 48 h) [µg/mL] | also measured
CO[C@@H]1CC[C@H](O)c2c1oc1c3c4c(c(O)c1c2=O)-c1c(cc2c(Cl)c(C)n(N)c(=O)c2c1O)C[C@H]4OCO3 [Chloroalbofungin (3), chloroalbofungin] | >20 | 10 to 20 | >20 | 250 to 500 | 250 to 500 | 100 to 200 | > 20 | > 20 | > 20 | 0.05 (≈ 0.0901 µM) | 0.0125 (≈ 0.0225 µM) | 0.0016 (≈ 0.00288 µM) | > 100 | 35 (≈ 63.1 µM) | did not cause significant difference | – | – | – | – | – | –
CO[C@@H]1CC[C@H](O)c2c1oc1c3c4c(c(O)c1c2=O)-c1c(cc2cc(C)[nH]c(=O)c2c1O)C[C@H]4OCO3 [Chrestoxanthone A (4), chrestoxanthone A] | >20 | 10 to 20 | >20 | 125 to 250 | 62.5 to 125 | 5 to 10 | > 20 | – | > 20 | 0.0125 (≈ 0.0247 µM) | 0.0125 (≈ 0.0247 µM) | 0.0016 (≈ 0.00317 µM) | > 100 | > 36.8 | did not cause significant difference | 0.13 to 0.25 | 1.25 to 2.5 | >10 | – | – | MIC ([8]; marine broth, overnight, read-out: MIC): 20 µg/mL (≈ 39.6 µM)
CO[C@@H]1CC[C@H](O)c2c1oc1c3c4c(c(O)c1c2=O)-c1c(cc2cc(C)n(N)c(=O)c2c1O)C[C@H]4OCO3 [Albofungin (1), albofungin] | 0.25 to 0.50 | 0.13 to 0.25 | 10 to 20 | 31.25 to 62.50 | 15.63 to 31.25 | 0.63 to 1.25 | 0.5 (≈ 0.961 µM) | 0.032 (≈ 0.0615 µM) | > 20 | 0.0032 (≈ 0.00615 µM) | 0.0032 (≈ 0.00615 µM) | 0.0008 (≈ 0.00154 µM) | > 100 | – | significantly lower | 0.01 to 0.03 | 0.06 to 0.13 | 1.25 to 2.5 | 0.63 to 1.25 | 1.6 (≈ 3.07 µM) | larval settlement rate ([14]; 2.5 μg mL^−1, 48 h): 33% (±5.3%); antifouling activity against larval settlement compared with butenolide ([14]; according to the EC50 value): equivalent antifouling activity; LC50/EC50 [14]: 62.5; LC50 at 3 h [17]: > 100 µg/mL; larval settlement ([18]; 2.5 μg mL^−1, 3 h): 44% (±9.0%); EC50 ([18]; Bugula neritina, larval settlement, 3 h): 1.9 µg/mL (≈ 3.65 µM); lethal effects ([18]; highest concentration tested): no lethal effects; LC50/EC50 ([18]; ratio used to evaluate toxicity of the antifoulant): 52.6; highest release rate ([19]; 5 wt % albofungin coating): 0.86 μg day-1 cm^−2; highest release rate ([19]; 10 wt % albofungin coating): 1.1 μg day-1 cm^−2; release rate decreased to ([19]; 15, 10 and 5 wt % coatings, time-dependent, within 35 days): approximately 0.08 μg day-1 cm^−2; highest release rate ([19]; 15 wt % albofungin coating): 1.4 μg day-1 cm^−2
Cc1cc2cc3c(c(O)c2c(=O)n1N)-c1c2c(c4oc5c(c(=O)c4c1O)[C@@H](O)CC[C@H]5O)OCO[C@@H]2C3 [Albofungin A (2), albofungin A] | 0.02 to 0.03 | 0.02 to 0.03 | >20 | 62.5 to 125 | 15.63 to 31.25 | 0.63 to 1.25 | 0.12 (≈ 0.237 µM) | 0.008 (≈ 0.0158 µM) | > 20 | 0.0064 (≈ 0.0126 µM) | 0.0064 (≈ 0.0126 µM) | 0.0008 (≈ 0.00158 µM) | > 100 | – | significantly lower | 0.01 to 0.03 | 0.13 to 0.25 | 0.63 to 1.25 | 0.31 to 0.63 | 12.2 (≈ 24.1 µM) | larval settlement rate ([14]; 20 μg mL^−1, 48 h): 17% (±12.7%); LC50/EC50 [14]: 8.2
